BindingDB's records for doi:10.1016/j.ejmech.2014.06.037 (The Second People'S Hospital of Fujian Provinc, 2014)

Molecular target: Tumor necrosis factor (Homo sapiens, UniProt P01375)
Assay: Binding affinity to TNF-alpha (unknown origin)

Tumor necrosis factor, sequence (P01375 whole entry): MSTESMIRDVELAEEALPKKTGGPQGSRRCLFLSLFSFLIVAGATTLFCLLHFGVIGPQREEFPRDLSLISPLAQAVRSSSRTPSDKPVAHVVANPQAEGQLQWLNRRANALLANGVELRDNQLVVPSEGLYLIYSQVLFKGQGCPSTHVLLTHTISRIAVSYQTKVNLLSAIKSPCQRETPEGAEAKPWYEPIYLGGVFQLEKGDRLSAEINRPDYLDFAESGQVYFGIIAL

C[C@H](CC(=O)C[C@@H](C)[C@H]1C[C@@H](O)[C@@]2(C)C3=C(C(=O)C[C@@]12C)[C@@]1(C)CCC(=O)C(C)(C)[C@H]1C[C@@H]3O)C(=O)O
Kd: 8 nM
